Literature values as cited in US20040235808A1, “Androstanes as androgen receptor modulators” (priority 2001, published 2004).

How the values were obtained:
[1] = after 7 years of treatment
[2] = median of 22 months of treatment

Compound	increase in spinal BMD [1]	reduction in nonvertebral fractures [2]	reduction in spine fractures [2]
NCCCC(O)(P(=O)([O-])O)P(=O)(O)O.O.O.O.[Na+] [alendronate, (4-amino-1-hydroxybutylidene)-bis-phosphonate monosodium trihydrate]	11%	–	–
hPTH(1-34): human parathyroid hormone 1-34 fragment (SVSEIQLMHNLGKHLNSMERVEWLRKKLQDVHNF; Parathyroid hormone; UniProt P01270 32-65, looked up, fragment)	–	54%	≥ 65%
